In US20240409536A1, “COMPOUNDS AND METHODS FOR MODULATING SPLICING” (REMIX THERAPEUTICS INC., priority 2021, published 2024):

Tests used:
HiBiT-tagged HTT protein = experiment: HiBiT protein abundance assay, HTT (K562 HiBiT knock-in cells); type: cell-based, human; settings: 24 hours
How it was run: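 K562 cells with endogenous HiBiT knock-in tag, 10-point 3-fold dilutions (top 10 μM final, ≤0.25% DMSO), 24 h at 37 °C. Lytic Nano-Glo HiBiT luminescence, normalized to DMSO and unmodified K562 baselines; IC50 is concentration giving 50% protein abundance from four-parameter fit.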

SMN2 mRNA = experiment: Gene panel canonical junction qPCR assay, SMN2 CJ mRNA decrease; type: cell-based, human; settings: Homo sapiens, canonical junction qPCR, read-out: SMN2 IC50 (decrease in CJ mRNA levels)
How it was run: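 A673 or K562 cells treated with compound; canonical exon-exon junction mRNA quantified by cDNA synthesis and RT-qPCR with junction-spanning primer/probe, normalized to GAPDH, GUSB or PPIA and DMSO (2^(−ΔΔCt)). Percent response from set ΔCt assay windows fitted to 4-parameter logistic; IC50 for CJ decrease.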

K562 cells = experiment: Cell Titer Glo 2.0 cell viability assay in K562 cells; settings: 72 hours

| IC50 (HiBiT-tagged HTT protein) [nM] | IC50 (SMN2 mRNA) [nM] | Compound | Viability (K562 cells) |
| --- | --- | --- | --- |
| 100 to 1000 | < 100 | Cc1cn2cc(NC(=O)c3ccc(N4CCNCC4)c4nccnc34)cc(F)c2n1 [Compound 111] | B (B represents 100-1000 nM) |
| 1000 to 10000 | < 100 | Cc1cn2cc(NC(=O)c3ccc(N4CCNC(C)(CO)C4)c4nccnc34)cc(F)c2n1 (stereo not drawn) [Compound 368] | B (B represents 100-1000 nM) |
| 1000 to 10000 | < 100 | C[C@@H]1CN(c2ccc(C(=O)Nc3cc(F)c4nc(Cl)cn4c3)c3nccnc23)C[C@H](C)N1 [Compound 306] | B (B represents 100-1000 nM) |
| 1000 to 10000 | 1000 to 10000 | Cc1cn2cc(NC(=O)c3ccc(N4CCN5CCOC[C@H]5C4)c4nccnc34)cc(F)c2n1 [Compound 256, (R)—N-(8-fluoro-2-methylimidazo[1,2-a]pyridin-6-yl)-8-(hexahydropyrazino[2,1-c][1,4]oxazin-8(1H)-yl)quinoxaline-5-carboxamide] | C (C represents 1000-9999 nM) |
| 1000 to 10000 | 100 to 1000 | Cc1cn2c(C)c(NC(=O)c3ccc(N4C[C@@H](C)N[C@@H](C)C4)c4nccnc34)cc(F)c2n1 [Compound 285] | C (C represents 1000-9999 nM) |
| 100 to 1000 | 100 to 1000 | Cc1cn2cc(NC(=O)c3ccc(N4CCN5CCOC[C@@H]5C4)c4nccnc34)cc(F)c2n1 [Compound 255, (S)—N-(8-fluoro-2-methylimidazo[1,2-a]pyridin-6-yl)-8-(hexahydropyrazino[2,1-c][1,4]oxazin-8(1H)-yl)quinoxaline-5-carboxamide] | B (B represents 100-1000 nM) |
| > 10000 | < 100 | Cc1cn2cc(NC(=O)c3ccc(N4CCNCC4)c4ccnnc34)ncc2n1 [Compound 120] | C (C represents 1000-9999 nM) |
| > 10000 | > 10000 | Cn1cc2ccc(NC(=O)c3ccc(N4CCNCC4)c4ccnnc34)cc2n1 [Compound 115] | D (D represents greater than 10 μM in K562 cells) |
| 1000 to 10000 | < 100 | Cc1cn2cc(NC(=O)c3ccc(N4C[C@@H](C)N[C@@H](C)C4)c4ncc(OC5CC5)nc34)cc(F)c2n1 [Compound 351] | B (B represents 100-1000 nM) |
| 100 to 1000 | < 100 | COc1cc2c(N3C[C@@H](C)N[C@@H](C)C3)ccc(C(=O)Nc3cc(F)c4nc(C)cn4c3)c2nn1 [Compound 273, 5-[(3R,5S)-3,5-dimethylpiperazin-1-yl]-N-{8-fluoro-2-methylimidazo[1,2-a]pyridin-6-yl}-3-methoxycinnoline-8-carboxamide] | B (B represents 100-1000 nM) |
| 1000 to 10000 | < 100 | Cc1cn2cc(NC(=O)c3ccc(N4C[C@@H](C)N[C@@H](C)C4)c4cncnc34)cc(F)c2n1 [Compound 302] | C (C represents 1000-9999 nM) |
| 1000 to 10000 | < 100 | Cc1cn2cc(NC(=O)c3ccc(N4CCN[C@H](CF)C4)c4nccnc34)cc(F)c2n1 [Compound 366] | C (C represents 1000-9999 nM) |
| 1000 to 10000 | < 100 | Cc1cn2cc(NC(=O)c3ccc(N4CCNC5(CCC5)C4)c4nccnc34)cc(F)c2n1 [Compound 363] | A (A represents <100 nM) |
| > 10000 | 100 to 1000 | C[C@@H]1CN(c2ccc(C(=O)Nc3cc(F)c4ncccc4c3)c3nccnc23)C[C@H](C)N1 [Compound 344] | C (C represents 1000-9999 nM) |
| 1000 to 10000 | < 100 | Cc1cn2cc(NC(=O)c3ccc(N4CCN[C@H](CO)C4)c4nccnc34)cc(F)c2n1 [Compound 362] | B (B represents 100-1000 nM) |
| > 10000 | < 100 | Cc1cn2cc(NC(=O)c3ccc(N4CC[C@@H](N(C)C)C4)c4nccnc34)cc(F)c2n1 [Compound 242, 8-[(3R)-3-(dimethylamino)pyrrolidin-1-yl]-N-{8-fluoro-2-methylimidazo[1,2-a]pyridin-6-yl}quinoxaline-5-carboxamide] | B (B represents 100-1000 nM) |
| 1000 to 10000 | < 100 | Cc1cn2cc(NC(=O)c3ccc(N4C[C@@H](C5CC5)N[C@@H](C)C4)c4nccnc34)cc(F)c2n1 [Compound 267, 8-((3R,5S)-3-cyclopropyl-5-methylpiperazin-1-yl)-N-(8-fluoro-2-methylimidazo[1,2-a]pyridin-6-yl)quinoxaline-5-carboxamide] | B (B represents 100-1000 nM) |
| 1000 to 10000 | < 100 | COc1nc(NC(=O)c2ccc(N3C[C@@H](C)N[C@@H](C)C3)c3nccnc23)cc2cn(C)nc12 [Compound 352] | B (B represents 100-1000 nM) |

| IC50 (HiBiT-tagged HTT protein) [nM] | IC50 (SMN2 mRNA) [nM] | Compound | Viability (K562 cells) |
| --- | --- | --- | --- |
| 1000 to 10000 | < 100 | Cc1cn2cc(NC(=O)c3ccc(N4CCC5(CCN5)C4)c4nccnc34)cc(F)c2n1 (stereo not drawn) [Compound 339] | B (B represents 100-1000 nM) |
| 1000 to 10000 | < 100 | COc1nc(NC(=O)c2ccc(N3C[C@@H](C)N[C@@H](C)C3)c3nccnc23)cc2oc(C)nc12 [Compound 298] | C (C represents 1000-9999 nM) |
| 1000 to 10000 | 1000 to 10000 | Cc1cn2cc(NC(=O)c3ccc(N4C[C@@H](C)N[C@@H](C)C4)c4ncc(Cl)nc34)cc(F)c2n1 [Compound 281] | C (C represents 1000-9999 nM) |
| 1000 to 10000 | < 100 | Cc1cn2cc(NC(=O)c3ccc(N4CC[C@@H](N)C4)c4nccnc34)cc(F)c2n1 [Compound 315] | B (B represents 100-1000 nM) |
| 1000 to 10000 | < 100 | Cc1cn2cc(NC(=O)c3ccc(N4CC[C@@H](N)C4)c4ccnnc34)cc(F)c2n1 [Compound 270] | B (B represents 100-1000 nM) |
| 1000 to 10000 | < 100 | Cc1cn2cc(NC(=O)c3ccc([C@H]4CCNC4)c4nccnc34)cc(F)c2n1 [Compound 246] | B (B represents 100-1000 nM) |
| 100 to 1000 | < 100 | Cc1cn2cc(NC(=O)c3ccc(N4CCC(NC5CC5)CC4)c4ccnnc34)cc(F)c2n1 [Compound 259, 5-[4-(cyclopropylamino)piperidin-1-yl]-N-{8-fluoro-2-methylimidazo[1,2-a]pyridin-6-yl} cinnoline-8-carboxamide] | A (A represents <100 nM) |
| 100 to 1000 | < 100 | CN[C@H]1CCN(c2ccc(C(=O)Nc3cc(F)c4nc(C)cn4c3)c3nnccc23)C1 [Compound 239, (S)—N-(8-fluoro-2-methylimidazo[1,2-a]pyridin-6-yl)-5-(3-(methylamino)pyrrolidin-1-yl)cinnoline-8-carboxamide] | B (B represents 100-1000 nM) |
| 100 to 1000 | < 100 | Cc1cn2cc(NC(=O)c3ccc(N4CCC(NC5CC5)CC4)c4nccnc34)cc(F)c2n1 [Compound 258, 8-(4-(cyclopropylamino)piperidin-1-yl)-N-(8-fluoro-2-methylimidazo[1,2-a]pyridin-6-yl)quinoxaline-5-carboxamide] | B (B represents 100-1000 nM) |
| 1000 to 10000 | < 100 | CNC1CCN(c2ccc(C(=O)Nc3cc(F)c4nc(C)cn4c3)c3nc(OCCOC)ccc23)C1 (stereo not drawn) [Compound 234] | B (B represents 100-1000 nM) |
| 1000 to 10000 | < 100 | Cc1cn2cc(NC(=O)c3ccc(N4CC(C)NC(C)C4)c4nc(C)c(C)nc34)cc(F)c2n1 (stereo not drawn) [Compound 257] | B (B represents 100-1000 nM) |
| 1000 to 10000 | < 100 | Cc1cn2cc(NC(=O)c3ccc(N4CCN[C@H](C5CC5)C4)c4nccnc34)cc(F)c2n1 [Compound 253, 8-[(3R)-3-cyclopropylpiperazin-1-yl]-N-{8-fluoro-2-methylimidazo[1,2-a]pyridin-6-yl}quinoxaline-5-carboxamide] | A (A represents <100 nM) |
| 1000 to 10000 | < 100 | Cc1cn2cc(NC(=O)c3ccc(N4CCNCC4)c4nncnc34)cc(F)c2n1 [Compound 345] | B (B represents 100-1000 nM) |
| 100 to 1000 | < 100 | Cc1cn2cc(NC(=O)c3ccc(N4C[C@@H](C)N[C@@H](C5CC5)C4)c4nccnc34)cc(F)c2n1 [Compound 266, 8-((3S,5R)-3-cyclopropyl-5-methylpiperazin-1-yl)-N-(8-fluoro-2-methylimidazo[1,2-a]pyridin-6-yl)quinoxaline-5-carboxamide] | B (B represents 100-1000 nM) |
| > 10000 | > 10000 | C[C@@H]1CN(c2ccc(C(=O)Nc3ccc4nc(N(C)C)oc4c3)c3nccnc23)C[C@H](C)N1 [Compound 290] | D (D represents greater than 10 μM in K562 cells) |
| > 10000 | < 100 | Cc1cn2cc(NC(=O)c3ccc(N4CCN[C@@H](C(C)C)C4)c4nccnc34)cc(F)c2n1 [Compound 250, N-{8-fluoro-2-methylimidazo[1,2-a]pyridin-6-yl}-8-[(3S)-3-isopropylpiperazin-1-yl]quinoxaline-5-carboxamide] | B (B represents 100-1000 nM) |
| 1000 to 10000 | < 100 | Cc1cn2cc(NC(=O)c3ccc(N4CCNC5(CC5)C4)c4cccnc34)cc(F)c2n1 [Compound 341] | B (B represents 100-1000 nM) |
| > 10000 | < 100 | Cc1cn2cc(NC(=O)c3ccc(N4C[C@@H](C)N[C@@H](C)C4)c4nccnc34)cc(Cl)c2n1 [Compound 304] | B (B represents 100-1000 nM) |
